Results published in PubChem BioAssay (NCI).
Several values for one entry are separate records, joined by “and”; a condition that tells them apart may be missing. Identical values can stand only once.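 Dose response: 5 concentrations. Exposure: 48 h. Format: 96-well plates. Endpoint: linear interpolation; highest concentration if not reached. At the GI50, growth is halved. TGI: concentration producing complete growth inhibition.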

Experiments:
Assay in all cases: NCI anticancer screen, dose series, 48 h
HOP-62 NSCLC = tested on: HOP-62 NSCLC
A498 renal = tested on: A498 renal
KM12 colon = tested on: KM12 colon
NCI-H226 lung = tested on: NCI-H226 lung
SK-OV-3 ovarian = tested on: SK-OV-3 ovarian
ACHN renal = tested on: ACHN renal
RXF 393 renal = tested on: RXF 393 renal
NCI-H23 lung = tested on: NCI-H23 lung
TK-10 renal = tested on: TK-10 renal
MOLT-4 leukemia = tested on: MOLT-4 leukemia

| Structure (SMILES) | TGI (HOP-62 NSCLC) | TGI (A498 renal) | TGI (KM12 colon) | TGI (NCI-H226 lung) | TGI (SK-OV-3 ovarian) | TGI (ACHN renal) | TGI (RXF 393 renal) | TGI (NCI-H23 lung) | TGI (TK-10 renal) | TGI (MOLT-4 leukemia) | GI50 (HOP-62 NSCLC) | GI50 (A498 renal) | GI50 (KM12 colon) | GI50 (NCI-H226 lung) | GI50 (SK-OV-3 ovarian) | GI50 (ACHN renal) | GI50 (RXF 393 renal) | GI50 (NCI-H23 lung) | GI50 (TK-10 renal) | GI50 (MOLT-4 leukemia) |
| --- | --- | --- | --- | --- | --- | --- | --- | --- | --- | --- | --- | --- | --- | --- | --- | --- | --- | --- | --- | --- |
| COc1ccc(C(=O)C(c2ccc(OC)cc2)C2(O)C(=O)Nc3c2ccc(Cl)c3C)cc1 (stereo not given) | > 100 µM | > 100 µM | > 100 µM | > 100 µM | > 100 µM | > 100 µM | > 100 µM | > 100 µM | > 100 µM | > 100 µM |  |  |  |  |  |  |  |  |  |  |
| CCCCN(CCCC)c1ccc(C(=N)c2ccc(N(CCCC)CCCC)cc2)cc1 | 2.11 µM | 2.56 µM | 1.25 µM | 1.97 µM | 2.47 µM | 1.48 µM | 1.62 µM | 1.06 µM | 1.53 µM | 2.14 µM | 0.748 µM | 1.24 µM | 0.334 µM | 0.593 µM | 1.19 µM | 0.402 µM | 0.545 µM | 0.292 µM | 0.453 µM | 0.604 µM |
| O=C1c2c(O)cccc2C(C2OC(CO)C(O)C(O)C2O)c2cc(CO)cc(O)c21 (stereo not given) | > 100 µM | > 100 µM | > 100 µM | > 100 µM | > 100 µM | > 100 µM | > 100 µM | > 100 µM | > 100 µM | > 100 µM |  |  |  |  |  |  |  |  |  |  |
| C=C1C(=O)OC2C1C(OC(=O)/C(C)=C/C)CC(O)(CCl)C1C(O)C3OC3(C)C21O (stereo not given) | > 50 µM | > 50 µM | > 50 µM | > 50 µM | > 50 µM | > 50 µM | 26 µM | > 50 µM | > 50 µM | > 50 µM |  |  |  |  |  |  |  |  |  |  |
| CCc1ccc(NC(=O)COC(=O)c2cc([N+](=O)[O-])ccc2Sc2nnnn2C)cc1 | 36 µM | 74.9 µM | > 100 µM | 36.1 µM | > 100 µM | 33.1 µM | 62 µM | 34.6 µM | > 100 µM | 81.6 µM | 15.2 µM | 21.5 µM | 19.6 µM | 17 µM | 27.1 µM | 14.2 µM | 24 µM | 9.79 µM | 46.4 µM | 20.3 µM |
| Cc1ccc(CNc2c3ccccc3nc3cc(NC(=O)CCN4CCCC4)ccc23)cc1 | 2.38 µM | 2.38 µM | 1.79 µM | 2.46 µM | 2.79 µM | 1.74 µM | 1.57 µM | 1.81 µM | 2.85 µM | 1.32 µM | 0.68 µM | 1.13 µM | 0.534 µM | 1.02 µM | 1.1 µM | 0.541 µM | 0.414 µM | 0.518 µM | 1.23 µM | 0.316 µM |
| CCOc1cc2ncc(C#N)c(Nc3ccc(OCc4ccccn4)c(Cl)c3)c2cc1NC(=O)/C=C/CN(C)C | 4.44 µM and > 7.81 µM |  | 5.29 µM and > 7.34 µM | 26.7 µM and > 7.67 µM |  | 4.14 µM and > 10 µM | 2.28 µM | 22.2 µM and > 10 µM |  | 20.3 µM and > 5.61 µM | 1.22 µM and 1.51 µM | 0.124 µM and 0.153 µM | 1.52 µM and 1.98 µM | 6.06 µM and 1.69 µM | < 0.01 µM and 0.00218 µM | 0.0358 µM and 0.0817 µM | 0.421 µM | 2.63 µM and > 4.56 µM | < 0.0117 µM and 0.0127 µM | 0.672 µM and 0.463 µM |
| Cc1c2c(nn1C)CSCc1cc(n(C)n1)CSc1cc(c3ccccc3c1)OCCCc1c(C(=O)O)n(C)c3c-2c(Cl)ccc13 | 17.3 µM | 19 µM | 11.9 µM | 23.2 µM | 22.7 µM | 14 µM | 3.63 µM | 10.6 µM | 18.3 µM | 4.4 µM | 4.62 µM | 4.01 µM | 3.3 µM | 4.4 µM | 10.6 µM | 4.1 µM | 1.29 µM | 1.78 µM | 4.75 µM | 0.448 µM |
| C[C@]12CCC3[C@@H](CC[C@@H]4c5nonc5CC[C@]34C)C1C/C(=N/O)C2=O (stereo not given in full) | > 100 µM | > 100 µM | > 100 µM | > 100 µM | > 100 µM | > 100 µM | > 100 µM | > 100 µM | > 100 µM | > 100 µM |  |  |  |  |  |  |  |  |  |  |
| Cc1[nH]c2ccccc2c1C1Cc2ccccc2N1C(=O)/C=C/C(=O)O (stereo not given) | > 100 µM | > 100 µM | > 100 µM | > 100 µM | > 100 µM | > 100 µM | > 100 µM | > 100 µM | > 100 µM | > 100 µM |  |  |  |  |  |  |  |  |  |  |
| O=C(c1ccccc1)c1cccc(C(=O)c2ccccc2)c1 | > 100 µM | > 100 µM | > 100 µM | > 100 µM | > 100 µM | > 100 µM | > 100 µM | > 100 µM | > 100 µM | > 100 µM |  |  |  |  |  |  |  |  |  |  |
| CN(/N=C/c1cccc2cccnc12)c1ccccc1 | > 100 µM | > 100 µM | > 100 µM | > 100 µM | > 100 µM | > 100 µM | > 100 µM | > 100 µM | > 100 µM | > 100 µM |  |  |  |  |  |  |  |  |  |  |
| COc1ccc(/C=C\c2cc(OC)c(OC)c(OC)c2)cc1OC | 40.4 µM and > 100 µM | 40.4 µM |  |  | > 100 µM | 40.4 µM and 85 µM | > 100 µM | 40.4 µM and > 100 µM | 40.4 µM and > 100 µM | 28 µM and 14.6 µM | 0.58 µM |  | 0.0513 µM | 0.297 µM | 0.187 µM | 0.763 µM |  | 0.447 µM | 23.5 µM |  |
| Cc1ccc(S(=O)(=O)Nc2cccc3[nH]c(C(F)(F)F)nc23)cc1 | 41.8 µM | 1.82 µM | 26.8 µM | 29.1 µM | 25 µM | > 60.6 µM | 27.1 µM | 41.5 µM | 61.8 µM | 29 µM | 1.21 µM | 0.262 µM | 0.347 µM | 3.73 µM | 1.34 µM | 0.799 µM | 1.17 µM | 1.66 µM | 2.98 µM | 0.605 µM |
| COC(=O)c1cc(Cl)ccc1NC(=O)c1ccc([N+](=O)[O-])cc1 | 38.8 µM | 34.5 µM | 51.7 µM | 42.5 µM | 42.5 µM | 26.5 µM | 65.6 µM | 50.3 µM | 40.6 µM | > 100 µM |  |  |  |  |  |  |  |  |  |  |
| O=C1CC(S(=O)(=O)O)C=C1Nc1cccc(Cl)c1 (stereo not given) | > 100 µM | > 100 µM | > 100 µM | > 100 µM | > 100 µM | > 100 µM | > 100 µM | > 100 µM | > 100 µM | > 100 µM |  |  |  |  |  |  |  |  |  |  |
| CN1CC[C@@H](c2c(O)cc(O)c3c(=O)cc(-c4ccccc4Cl)oc23)[C@@H]1CO | 1.2 µM | 0.553 µM | > 9 µM | 0.878 µM | 9.91 µM | > 10 µM | 0.43 µM | 3.03 µM | > 10 µM | > 3.79 µM | 0.304 µM | 0.215 µM | 0.254 µM | 0.239 µM | 1.4 µM | 0.294 µM | 0.192 µM | 0.288 µM | 0.293 µM | 0.295 µM |
| O=CC1CCCc2ccccc21 (stereo not given) | > 100 µM | > 100 µM | > 100 µM | > 100 µM | > 100 µM | > 100 µM | > 100 µM | > 100 µM | > 100 µM | > 100 µM |  |  |  |  |  |  |  |  |  |  |
| O=C(NN1C(=O)CSC12CCCC2)c1[nH]c2ccc(Br)cc2c1-c1ccccc1 | > 100 µM | > 100 µM | > 100 µM | > 100 µM | > 100 µM | > 100 µM | > 100 µM | > 100 µM | > 100 µM | 90.4 µM | 62.5 µM | > 100 µM | 28.5 µM | > 100 µM | > 100 µM | > 100 µM | 31.2 µM | 41.1 µM | 80.9 µM | 21.9 µM |
| COc1cccc(-n2ncc3c(N/N=C/c4ccncc4)ncnc32)c1 | > 25 µM |  | > 25 µM | > 25 µM | > 25 µM | > 25 µM | > 25 µM | > 25 µM | > 25 µM | > 25 µM | > 25 µM | 0.326 µM | 2.9 µM | > 6.17 µM | 1.7 µM | 0.985 µM | 0.672 µM | > 25 µM | 2.75 µM | > 25 µM |
| COc1c(Cl)cc(NC(=S)C#N)cc1Cl | > 50.9 µM | 44.5 µM | 85.6 µM | 57.6 µM | > 74.7 µM | > 80.1 µM | > 81.4 µM | 44.6 µM | > 100 µM | > 100 µM |  |  |  |  |  |  |  |  |  |  |
| CC1=C2C(=CC(C)(C)C2O)C(=O)C(C)(O)C12CC2 (stereo not given) | 0.0447 µM | 0.0822 µM | 0.109 µM | 0.152 µM | 0.175 µM | 0.0373 µM | 0.0194 µM | 0.0234 µM | 0.14 µM | 0.0245 µM |  |  |  |  |  |  |  |  |  |  |
| COc1cc(C(=O)NC2CCN(C)CC2)c(F)cc1Nc1ncc2c(n1)N(C1CCCC1)CC(F)(F)C(=O)N2C | 13.2 µM | 0.14 µM | 14 µM | 18.7 µM | 1.02 µM | 14.4 µM | 15.2 µM | 3.4 µM | 12.6 µM | 2.53 µM | < 0.0141 µM | < 0.0196 µM | < 0.01 µM | 2.64 µM | < 0.0132 µM | < 0.0378 µM | < 0.0169 µM | < 0.0182 µM |  | 0.0171 µM |
| Cc1cccc(C(C)C)c1NC(=O)CC1C(=O)Nc2ccccc2S1(=O)=O (stereo not given) | > 100 µM | > 54.2 µM | 73.9 µM | 49.9 µM | > 100 µM | > 58.2 µM | 25.8 µM | 31.3 µM | 70.1 µM | 10.2 µM |  |  |  |  |  |  |  |  |  |  |
